Results as given in patent EP4603105A1, “PHARMACEUTICAL COMPOSITION CONTAINING CYCLIC COMPOUND HAVING SELECTIVE KRAS INHIBITORY EFFECT AGAINST HRAS AND NRAS” (CHUGAI SEIYAKU KABUSHIKI KAISHA, priority 2022, dated 2024).
Where two headings read alike, the source gives them in different places.

How the values were obtained:
[1] = tested on: human lung cancer strain NCI-H441; assay: NCI-H441 cell proliferation inhibitory activity (CellTiter-Glo, 4 days); type: cell-based; settings: 50% proliferation inhibitory concentration, four days, read-out: NCl-H441 IC50
Experimental: A test compound was dispensed into a U-bottom 384-well plate as 40 nL serially diluted dimethyl sulfoxide solutions using a liquid handler Echo (LABCYTE). […] This cell suspension was dispensed in an amount of 40 µL per well into a plate containing the test compound, and cultured at 37°C in a 5% carbon dioxide gas incubator. Four days later, 20 µL of CellTiter-Glo (registered trademark) (Promega) was added to each well and […] was measured. […]

[2] = biological target: GDP-bound KRAS wild-type protein (Homo sapiens, UniProt P01116); assay: Binding to KRAS by surface plasmon resonance (SPR), dissociation constant KD; settings: 1:1 binding model
Sequence of GDP-bound KRAS wild-type protein (P01116 1-188 isoform P01116-2): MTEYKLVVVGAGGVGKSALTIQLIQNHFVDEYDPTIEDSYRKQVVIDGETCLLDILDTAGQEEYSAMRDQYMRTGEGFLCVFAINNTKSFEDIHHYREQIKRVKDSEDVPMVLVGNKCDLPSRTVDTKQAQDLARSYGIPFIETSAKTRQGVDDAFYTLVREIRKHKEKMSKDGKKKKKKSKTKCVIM
Outline: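 Read-out is KD from 1:1 fitting of single-cycle kinetics sensorgrams, blank-cycle and reference-surface corrected. Proteins were GDP-loaded, biotinylated Avi-fusions freshly captured each cycle at roughly 100–300 RU. Runs were at 30°C in HBS pH 7.4 with MgCl2, GDP and 4% DMSO.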

[3] = biological target: GDP-bound NRAS wild-type protein (Homo sapiens, UniProt P01111); assay: Binding to NRAS by surface plasmon resonance (SPR), KD and KD ratio to KRAS; settings: ratio of KD for GDP-bound NRAS wild-type protein to KD for KRAS
Sequence of GDP-bound NRAS wild-type protein (P01111 whole entry): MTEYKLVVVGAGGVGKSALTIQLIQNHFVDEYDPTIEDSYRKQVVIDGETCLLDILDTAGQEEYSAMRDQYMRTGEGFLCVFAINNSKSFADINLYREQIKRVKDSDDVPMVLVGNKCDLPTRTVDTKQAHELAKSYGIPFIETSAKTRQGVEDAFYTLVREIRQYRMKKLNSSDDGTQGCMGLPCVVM
Outline: (§1)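 Single-cycle kinetics on GDP-loaded biotin-Avi RAS captured to ~100–300 RU; 75 s ascending injections, 100 µL/min, 30°C. HBS pH 7.4 + 10 mM MgCl2/10 µM GDP/4% DMSO. 1:1 fit, KD.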

[4] = biological target: HRAS wild-type protein (Homo sapiens, UniProt P01112); assay: Binding to HRAS by surface plasmon resonance (SPR), KD and KD ratio to KRAS; settings: ratio of KD for HRAS wild-type protein to KD for KRAS
Sequence of HRAS wild-type protein (P01112 whole entry): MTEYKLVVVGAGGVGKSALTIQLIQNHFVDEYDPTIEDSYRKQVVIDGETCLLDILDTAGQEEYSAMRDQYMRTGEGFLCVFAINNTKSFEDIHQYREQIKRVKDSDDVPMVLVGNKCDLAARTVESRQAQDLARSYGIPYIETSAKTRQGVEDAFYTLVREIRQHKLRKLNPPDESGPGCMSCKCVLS
Outline: as §1

[5] = tested on: human lung cancer strain NCI-H441; type: cell-based
Outline: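 Proliferation was scored by […] measured after the reagent was added to cultures kept at 37°C in 5% carbon dioxide.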

| IC50 [1] [nM] | Kd [2] [nM] | IC50 [5] [nM] | Compound | NRAS /KRAS [3] | HRAS /KRAS [4] |
| --- | --- | --- | --- | --- | --- |
| 45.7 |  |  | CCO[C@@H]1C[C@H]2C(=O)NC3(COC3)C(=O)N(C)[C@@H](C3CCCC3)C(=O)N(C)[C@H](C(=O)N(C)C)CC(=O)N(C)[C@@H](CC)C(=O)N[C@@H]([C@@H](C)CC)C(=O)N(C)CC(=O)N(C)[C@H]3C/C=C\CCN(C3=O)[C@@H](Cc3ccc(C(F)(F)F)cc3)C(=O)N(C)CC(=O)N[C@@H](CCc3cc(F)c(C(F)(F)F)c(F)c3)C(=O)N2C1 [PP1278] |  |  |
| 10.2 |  |  | CCO[C@@H]1C[C@H]2C(=O)NC3(CCC3)C(=O)N(C)[C@@H](C3CCCC3)C(=O)N(C)[C@H](C(=O)N3CCOCC3)CC(=O)N(C)[C@@H](CC)C(=O)N[C@@H]([C@@H](C)CC)C(=O)N(C)CC(=O)N(C)[C@H]3C/C=C\CCN(C3=O)[C@@H](Cc3ccc(C(F)(F)F)cc3)C(=O)N(C)CC(=O)N[C@@H](CCc3ccc(C(F)(F)F)c(Cl)c3)C(=O)N2C1 [PP1281] |  |  |
| 11 |  |  | CCC[C@H]1C(=O)N[C@@H]([C@@H](C)CC)C(=O)N(C)CC(=O)N(C)[C@H]2C/C=C\CCN(C2=O)[C@@H](Cc2ccc(C(F)(F)F)cc2)C(=O)N(C)CC(=O)N[C@@H](CCc2cc(F)c(C(F)(F)F)c(F)c2)C(=O)N2C[C@H](OCC)C[C@H]2C(=O)NC2(CCC2)C(=O)N(C)[C@@H](C2CCCC2)C(=O)N(C)[C@H](C(=O)N2CCCC2)CC(=O)N1C [PP1299] |  |  |
| 19.4 |  |  | CCCC[C@H]1C(=O)N[C@@H]([C@@H](C)CC)C(=O)N(C)CC(=O)N(C)[C@H]2C/C=C\CCN(C2=O)[C@@H](Cc2ccc(C(F)(F)F)cc2)C(=O)N(C)CC(=O)N[C@@H](CCc2cc(F)c(C(F)(F)F)c(F)c2)C(=O)N2C[C@H](OCC)C[C@H]2C(=O)NC2(CCC2)C(=O)N(C)[C@@H](C2CCCC2)C(=O)N(C)[C@H](C(=O)N2CCCC2)CC(=O)N1C [PP1396] |  |  |
| 4.4 |  |  | CCO[C@@H]1C[C@H]2C(=O)NC3(CCC3)C(=O)N(C)[C@@H](C3CCCC3)C(=O)N(C)[C@H](C(=O)N3CCCC3)CC(=O)N(C)[C@@H](CC3CCC3)C(=O)N[C@@H]([C@@H](C)CC)C(=O)N(C)CC(=O)N(C)[C@H]3C/C=C\CCN(C3=O)[C@@H](Cc3ccc(C(F)(F)F)cc3)C(=O)N(C)CC(=O)N[C@@H](CCc3cc(F)c(C(F)(F)F)c(F)c3)C(=O)N2C1 [PP1423] |  |  |

More lines, now with the values behind:

| Compound | IC50 [1] [nM] | Kd [2] [nM] | IC50 [5] [nM] | NRAS /KRAS [3] | HRAS /KRAS [4] |
| --- | --- | --- | --- | --- | --- |
| CCC[C@H]1C(=O)N[C@@H]([C@@H](C)CC)C(=O)N(C)CC(=O)N(C)[C@H]2C/C=C\CCN(C2=O)[C@@H](CC2CCC(F)(F)CC2)C(=O)N(C)CC(=O)N[C@@H](CCc2cc(F)c(C(F)(F)F)c(F)c2)C(=O)N2C[C@H](OCC)C[C@H]2C(=O)NC2(CCC2)C(=O)N(C)[C@@H](C2CCCC2)C(=O)N(C)[C@H](C(=O)N(C)C)CC(=O)N1C [PP1450] | 50.1 |  |  |  |  |
| CC[C@H](C)[C@@H]1NC(=O)[C@H](CC)N(C)C(=O)C[C@@H](C(=O)N(C)C)N(C)C(=O)[C@H](C2CCCC2)N(C)C(=O)C2(CCC2)NC(=O)[C@@H]2C[C@@H](C(F)(F)F)CN2C(=O)[C@H](CCc2cc(F)c(C(F)(F)F)c(F)c2)NC(=O)CN(C)C(=O)[C@H](CC2CCC(F)(F)CC2)N2CC/C=C\C[C@@H](C2=O)N(C)C(=O)CN(C)C1=O [PP1451] | 61.1 |  |  |  |  |
| CCO[C@@H]1C[C@H]2C(=O)NC3(CC(C)(C)C3)C(=O)N(C)[C@@H](C3CCCC3)C(=O)N(C)[C@H](C(=O)N(C)C)CC(=O)N(C)[C@@H]([C@@H](C)OC)C(=O)N[C@@H]([C@@H](C)CC)C(=O)N3CCC[C@H]3C(=O)N(C)[C@H]3C/C=C\CCN(C3=O)[C@@H](Cc3ccc(C(F)(F)F)cc3)C(=O)N(C)CC(=O)N[C@@H](CCc3ccc(C(F)(F)F)c(Cl)c3)C(=O)N2C1 [PP3206] |  | 0.43 | 19.2 | A (a compound having 10 or more and less than 20 is denoted as A) | A (a compound having 10 or more and less than 20 is denoted as A) |
| CCO[C@@H]1C[C@H]2C(=O)NC3(CC(C)(C)C3)C(=O)N(C)[C@@H](C3CCCC3)C(=O)N(C)[C@H](C(=O)N(C)C)CC(=O)N(C)[C@@H]([C@@H](C)OC)C(=O)N[C@@H]([C@@H](C)CC)C(=O)N(C)CC(=O)N(C)[C@H]3C/C=C\CCN(C3=O)[C@@H](Cc3ccc(C)cc3)C(=O)N(C)CC(=O)N[C@@H](CCc3ccc(C(F)(F)F)c(OC)c3)C(=O)N2C1 [PP3207] |  | 0.059 | 5.6 | A (a compound having 10 or more and less than 20 is denoted as A) | A (a compound having 10 or more and less than 20 is denoted as A) |
| CCO[C@@H]1C[C@H]2C(=O)NC3(CC(C)(C)C3)C(=O)N(C)[C@@H](C3CCCC3)C(=O)N(C)[C@H](C(=O)N(C)C)CC(=O)N(C)[C@@H]([C@@H](C)OC)C(=O)N[C@@H]([C@@H](C)CC)C(=O)N(C)CC(=O)N(C)[C@H]3C/C=C\CCN(C3=O)[C@@H](Cc3ccc(C)cc3)C(=O)N(C)CC(=O)N[C@@H](CCc3cc(F)c(C(F)(F)F)c(F)c3)C(=O)N2C1 [PP3208] |  | 0.076 | 2.8 | A (a compound having 10 or more and less than 20 is denoted as A) | A (a compound having 10 or more and less than 20 is denoted as A) |
| CCO[C@@H]1C[C@H]2C(=O)NC3(CC(C)(C)C3)C(=O)N(C)[C@@H](C3CCCC3)C(=O)N(C)[C@H](C(=O)N(C)C)CC(=O)N(C)[C@@H]([C@@H](C)OC)C(=O)N[C@@H]([C@@H](C)CC)C(=O)N(C)CC(=O)N(C)[C@H]3C/C=C\CCN(C3=O)[C@@H](Cc3ccc(C)cc3)C(=O)N(C)CC(=O)N[C@@H](CCc3ccc(C(F)(F)F)c(Cl)c3)C(=O)N2C1 [PP3209] |  | 0.1 | 5.5 | A (a compound having 10 or more and less than 20 is denoted as A) | B (a compound having 3 or more and less than 10 is denoted as B) |
| CCO[C@@H]1C[C@H]2C(=O)NC3(CC(C)(C)C3)C(=O)N(C)[C@@H](C3CCCC3)C(=O)N(C)[C@H](C(=O)N(C)C)CC(=O)N(C)[C@@H]([C@@H](C)OC)C(=O)N[C@@H]([C@@H](C)CC)C(=O)N(C3CC3)CC(=O)N(C)[C@H]3C/C=C\CCN(C3=O)[C@@H](Cc3ccc(C)cc3)C(=O)N(C)CC(=O)N[C@@H](CCc3ccc(C(F)(F)F)c(OC)c3)C(=O)N2C1 [PP3210] |  | 0.53 | 19.1 | A (a compound having 10 or more and less than 20 is denoted as A) | B (a compound having 3 or more and less than 10 is denoted as B) |
| CCO[C@@H]1C[C@H]2C(=O)NC3(CC(C)(C)C3)C(=O)N(C)[C@@H](C3CCCC3)C(=O)N(C)[C@H](C(=O)N(C)C)CC(=O)N(C)[C@@H]([C@@H](C)OC)C(=O)N[C@@H]([C@@H](C)CC)C(=O)N(C3CC3)CC(=O)N(C)[C@H]3C/C=C\CCN(C3=O)[C@@H](Cc3ccc(C)cc3)C(=O)N(C)CC(=O)N[C@@H](CCc3cc(F)c(C(F)(F)F)c(F)c3)C(=O)N2C1 [PP3211] |  | 0.33 | 19.4 | A (a compound having 10 or more and less than 20 is denoted as A) | A (a compound having 10 or more and less than 20 is denoted as A) |
| CCO[C@@H]1C[C@H]2C(=O)NC3(CC(C)(C)C3)C(=O)N(C)[C@@H](C3CCCC3)C(=O)N(C)[C@H](C(=O)N(C)C)CC(=O)N(C)[C@@H]([C@@H](C)OC)C(=O)N[C@@H]([C@@H](C)CC)C(=O)N(C3CC3)CC(=O)N(C)[C@H]3C/C=C\CCN(C3=O)[C@@H](Cc3ccc(C)cc3)C(=O)N(C)CC(=O)N[C@@H](CCc3ccc(C(F)(F)F)c(Cl)c3)C(=O)N2C1 [PP3212] |  | 0.3 | 16.6 | A (a compound having 10 or more and less than 20 is denoted as A) | A (a compound having 10 or more and less than 20 is denoted as A) |
| CCO[C@@H]1C[C@H]2C(=O)NC3(CC(C)(C)C3)C(=O)N(C)[C@@H](C3CCCC3)C(=O)N(C)[C@H](C(=O)N(C)C)CC(=O)N(C)[C@@H]([C@@H](C)OC)C(=O)N[C@@H]([C@@H](C)CC)C(=O)N3CCC[C@H]3C(=O)N(C)[C@H]3C/C=C\CCN(C3=O)[C@@H](Cc3ccc(C)cc3)C(=O)N(C)CC(=O)N[C@@H](CCc3ccc(C(F)(F)F)c(OC)c3)C(=O)N2C1 [PP3213] |  | 0.6 | 61.4 | A (a compound having 10 or more and less than 20 is denoted as A) | A (a compound having 10 or more and less than 20 is denoted as A) |
| CCO[C@@H]1C[C@H]2C(=O)NC3(CC(C)(C)C3)C(=O)N(C)[C@@H](C3CCCC3)C(=O)N(C)[C@H](C(=O)N(C)C)CC(=O)N(C)[C@@H]([C@@H](C)OC)C(=O)N[C@@H]([C@@H](C)CC)C(=O)N3CCC[C@H]3C(=O)N(C)[C@H]3C/C=C\CCN(C3=O)[C@@H](Cc3ccc(C)cc3)C(=O)N(C)CC(=O)N[C@@H](CCc3cc(F)c(C(F)(F)F)c(F)c3)C(=O)N2C1 [PP3214] |  | 0.48 | 45.8 | A (a compound having 10 or more and less than 20 is denoted as A) | A (a compound having 10 or more and less than 20 is denoted as A) |
